Patent US9428455B2, “Process for annealing amorphous atorvastatin” (Pfizer Inc., priority 2005, dated 2016)
Structures can show the parent of a compound that is named as a salt.

Assay type: physicochemical
Description: The amorphous atorvastatin calcium was loaded into 20 ml glass vials (approximately 1 g per vial), and heated at 100±5° C. for 1, 6, and 18 hours in an oven. After heating, the powder was transferred from the vials to 15 ml amber screw-cap bottles, and set-up on stability at 50° C./20% RH. In addition, unannealed amorphous atorvastatin calcium, which was loaded in 15 ml amber screw-cap bottles, was placed on stability as a control.
The annealed amorphous atorvastatin calcium was analyzed for impurities and atorvastatin degradation products using HPLC, by evaluating the ratio of peak integration compared to the total integrated peak areas. […] The material was analyzed by HPLC (Zorbax SB C8 column, 25.0 cm×4.6 mm, HPLC: Hewlett Packard 1100 series, 20 μl injection volume, flow of 1.5 mL/min). […]
Stability data obtained for three annealed samples and the control sample are graphically illustrated in FIGS. 1 to 4. […] In order to express stabilization by annealing in a more quantitative term, relative degradation rate constants, krel, were determined from the data presented in FIGS. 1 to 4. The krel were calculated using Eq. 1: krel=(k/k0)*100% Eq. 1 where k is the zero order rate constant for annealed samples, and k0 is the zero order rate constant for the control sample; k and k0 were determined from the data presented in FIGS. 1 to 4.

Relative degradation rate for total degradation products, less than in the control: 34%
SMILES: CC(C)c1c(C(=O)Nc2ccccc2)c(-c2ccccc2)c(-c2ccc(F)cc2)n1CC[C@@H](O)C[C@@H](O)CC(=O)O (relative stereo) [amorphous atorvastatin calcium, [R—(R*,R*)]-2-(4-fluorophenyl)-β,δ-dihydroxy-5-(1-methylethyl)-3-phenyl-4-[(phenylamino)carbonyl]-1H-pyrrole-1-heptanoic acid calcium salt (2:1) trihydrate]
